How the values were obtained:
Assay in all cases: scanEDGE off-target screen
Type in all cases: binding
97 kinases [1] = biological target: T1, 97 kinases (Homo sapiens, UniProt Q9UPE1); details: read-out: %Ctrl SRPK3
T1 construct: purchased Ambit Biosciences (scanEDGE / KINOMEscan) scanEDGE 97 kinase panel; host or cells: T7 phage in E. coli BL21-derived host; remaining kinases in HEK-293 cells

97 kinases [2] = biological target: T2, 97 kinases (Homo sapiens, UniProt P15056); details: read-out: %Ctrl BRAF
T2 construct: purchased Ambit Biosciences (scanEDGE / KINOMEscan) scanEDGE 97 kinase panel; host or cells: T7 phage in E. coli BL21-derived host; remaining kinases in HEK-293 cells

97 kinases [3] = biological target: T3, 97 kinases (Homo sapiens, UniProt P52333); details: read-out: %Ctrl JAK3(JH1domain-catalytic)
T3 construct: purchased Ambit Biosciences (scanEDGE / KINOMEscan) scanEDGE 97 kinase panel; host or cells: T7 phage in E. coli BL21-derived host; remaining kinases in HEK-293 cells
T3 sequence (P52333 whole entry): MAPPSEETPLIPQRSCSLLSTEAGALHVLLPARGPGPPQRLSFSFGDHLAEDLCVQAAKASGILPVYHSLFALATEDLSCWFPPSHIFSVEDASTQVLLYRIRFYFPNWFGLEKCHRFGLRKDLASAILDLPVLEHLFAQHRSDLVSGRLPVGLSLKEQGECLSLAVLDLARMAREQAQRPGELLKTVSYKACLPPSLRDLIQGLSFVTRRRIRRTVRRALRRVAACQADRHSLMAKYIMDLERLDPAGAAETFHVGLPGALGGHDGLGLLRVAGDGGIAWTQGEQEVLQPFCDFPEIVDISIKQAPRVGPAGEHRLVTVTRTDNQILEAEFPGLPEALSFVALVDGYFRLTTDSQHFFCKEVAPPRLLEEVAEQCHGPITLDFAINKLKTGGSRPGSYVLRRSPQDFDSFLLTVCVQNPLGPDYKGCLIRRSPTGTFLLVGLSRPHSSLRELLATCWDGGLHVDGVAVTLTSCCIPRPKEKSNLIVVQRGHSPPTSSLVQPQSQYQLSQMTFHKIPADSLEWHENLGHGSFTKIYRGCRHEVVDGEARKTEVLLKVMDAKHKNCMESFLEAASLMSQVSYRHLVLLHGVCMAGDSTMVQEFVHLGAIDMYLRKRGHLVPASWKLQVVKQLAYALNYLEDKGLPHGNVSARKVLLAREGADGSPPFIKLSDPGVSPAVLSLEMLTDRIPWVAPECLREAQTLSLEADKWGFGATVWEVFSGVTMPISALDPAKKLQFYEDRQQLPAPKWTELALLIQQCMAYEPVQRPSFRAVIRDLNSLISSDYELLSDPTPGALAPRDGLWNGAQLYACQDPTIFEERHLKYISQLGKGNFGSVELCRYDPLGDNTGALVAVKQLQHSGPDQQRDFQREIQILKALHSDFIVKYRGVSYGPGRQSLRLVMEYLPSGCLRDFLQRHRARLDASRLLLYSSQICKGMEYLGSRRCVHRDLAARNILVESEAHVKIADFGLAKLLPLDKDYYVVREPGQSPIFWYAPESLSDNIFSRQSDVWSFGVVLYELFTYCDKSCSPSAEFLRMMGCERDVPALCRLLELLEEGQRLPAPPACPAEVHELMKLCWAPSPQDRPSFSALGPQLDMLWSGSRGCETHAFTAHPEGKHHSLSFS

97 kinases [4] = biological target: T4, 97 kinases (Homo sapiens, UniProt Q86V86); details: read-out: %Ctrl PIM3
T4 construct: purchased Ambit Biosciences (scanEDGE / KINOMEscan) scanEDGE 97 kinase panel; host or cells: T7 phage in E. coli BL21-derived host; remaining kinases in HEK-293 cells

97 kinases [5] = biological target: T5, 97 kinases (Homo sapiens, UniProt Q02750); details: read-out: %Ctrl MEK1
T5 construct: purchased Ambit Biosciences (scanEDGE / KINOMEscan) scanEDGE 97 kinase panel; host or cells: T7 phage in E. coli BL21-derived host; remaining kinases in HEK-293 cells

97 kinases [6] = biological target: T6, 97 kinases (Homo sapiens, UniProt P04049); details: read-out: %Ctrl RAF1
T6 construct: purchased Ambit Biosciences (scanEDGE / KINOMEscan) scanEDGE 97 kinase panel; host or cells: T7 phage in E. coli BL21-derived host; remaining kinases in HEK-293 cells

97 kinases [7] = biological target: T7, 97 kinases (Homo sapiens, UniProt P11309); details: read-out: %Ctrl PIM1
T7 construct: purchased Ambit Biosciences (scanEDGE / KINOMEscan) scanEDGE 97 kinase panel; host or cells: T7 phage in E. coli BL21-derived host; remaining kinases in HEK-293 cells
T7 sequence (P11309 whole entry): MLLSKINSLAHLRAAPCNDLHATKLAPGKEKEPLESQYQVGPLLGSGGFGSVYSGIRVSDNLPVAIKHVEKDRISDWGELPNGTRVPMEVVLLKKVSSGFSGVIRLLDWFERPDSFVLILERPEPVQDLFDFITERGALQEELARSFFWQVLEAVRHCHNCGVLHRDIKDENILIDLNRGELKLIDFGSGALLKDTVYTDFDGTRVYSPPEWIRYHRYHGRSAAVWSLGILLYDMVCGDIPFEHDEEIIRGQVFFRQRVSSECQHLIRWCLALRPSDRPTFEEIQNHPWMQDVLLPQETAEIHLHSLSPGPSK

97 kinases [8] = biological target: T8, 97 kinases (Homo sapiens, UniProt P04629); details: read-out: %Ctrl TRKA
T8 construct: purchased Ambit Biosciences (scanEDGE / KINOMEscan) scanEDGE 97 kinase panel; host or cells: T7 phage in E. coli BL21-derived host; remaining kinases in HEK-293 cells

97 kinases [9] = biological target: T9, 97 kinases (Homo sapiens, UniProt P29597); details: read-out: %Ctrl TYK2(JH1domain-catalytic)
T9 construct: purchased Ambit Biosciences (scanEDGE / KINOMEscan) scanEDGE 97 kinase panel; host or cells: T7 phage in E. coli BL21-derived host; remaining kinases in HEK-293 cells

97 kinases [10] = biological target: T10, 97 kinases (Homo sapiens, UniProt P29317); details: read-out: %Ctrl EPHA2
T10 construct: purchased Ambit Biosciences (scanEDGE / KINOMEscan) scanEDGE 97 kinase panel; host or cells: T7 phage in E. coli BL21-derived host; remaining kinases in HEK-293 cells

97 kinases [11] = biological target: T11, 97 kinases (Homo sapiens, UniProt P50613); details: read-out: %Ctrl CDK7
T11 construct: purchased Ambit Biosciences (scanEDGE / KINOMEscan) scanEDGE 97 kinase panel; host or cells: T7 phage in E. coli BL21-derived host; remaining kinases in HEK-293 cells

97 kinases [12] = biological target: T12, 97 kinases (Homo sapiens, UniProt Q86UX6); details: read-out: %Ctrl YANK3
T12 construct: purchased Ambit Biosciences (scanEDGE / KINOMEscan) scanEDGE 97 kinase panel; host or cells: T7 phage in E. coli BL21-derived host; remaining kinases in HEK-293 cells

97 kinases [13] = biological target: T13, 97 kinases (Homo sapiens, UniProt Q13873); details: read-out: %Ctrl BMPR2
T13 construct: purchased Ambit Biosciences (scanEDGE / KINOMEscan) scanEDGE 97 kinase panel; host or cells: T7 phage in E. coli BL21-derived host; remaining kinases in HEK-293 cells
T13 sequence (Q13873 27-1038): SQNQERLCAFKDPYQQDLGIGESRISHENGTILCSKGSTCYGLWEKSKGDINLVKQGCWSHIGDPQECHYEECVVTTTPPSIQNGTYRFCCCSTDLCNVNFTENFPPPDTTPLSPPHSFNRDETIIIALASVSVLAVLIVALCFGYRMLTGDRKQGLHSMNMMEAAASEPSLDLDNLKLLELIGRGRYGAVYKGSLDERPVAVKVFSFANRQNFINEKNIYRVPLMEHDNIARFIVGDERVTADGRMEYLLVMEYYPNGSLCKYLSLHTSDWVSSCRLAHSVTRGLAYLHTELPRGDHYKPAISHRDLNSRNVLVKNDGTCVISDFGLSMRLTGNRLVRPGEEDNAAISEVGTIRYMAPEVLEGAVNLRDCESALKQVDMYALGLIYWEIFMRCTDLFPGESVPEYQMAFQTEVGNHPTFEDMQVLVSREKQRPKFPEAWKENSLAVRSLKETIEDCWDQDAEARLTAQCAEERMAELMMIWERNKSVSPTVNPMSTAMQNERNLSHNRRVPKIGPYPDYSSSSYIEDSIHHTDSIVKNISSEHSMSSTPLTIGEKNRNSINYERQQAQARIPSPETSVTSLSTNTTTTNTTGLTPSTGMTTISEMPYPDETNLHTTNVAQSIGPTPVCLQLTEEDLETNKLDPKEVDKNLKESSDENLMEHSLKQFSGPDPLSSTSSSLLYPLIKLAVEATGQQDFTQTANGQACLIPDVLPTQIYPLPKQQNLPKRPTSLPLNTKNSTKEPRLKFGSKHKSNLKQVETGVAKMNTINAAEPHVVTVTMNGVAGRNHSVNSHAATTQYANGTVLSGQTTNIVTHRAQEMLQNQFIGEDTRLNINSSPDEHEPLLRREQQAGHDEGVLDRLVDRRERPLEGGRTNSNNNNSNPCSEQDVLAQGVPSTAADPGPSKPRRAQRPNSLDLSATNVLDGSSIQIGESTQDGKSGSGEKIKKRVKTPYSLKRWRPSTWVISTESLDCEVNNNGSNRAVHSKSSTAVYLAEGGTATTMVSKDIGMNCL

97 kinases [14] = biological target: T14, 97 kinases (Homo sapiens, UniProt O14965); details: read-out: %Ctrl AURKA
T14 construct: purchased Ambit Biosciences (scanEDGE / KINOMEscan) scanEDGE 97 kinase panel; host or cells: T7 phage in E. coli BL21-derived host; remaining kinases in HEK-293 cells

97 kinases [15] = biological target: T15, 97 kinases (Homo sapiens, UniProt O60674); details: read-out: %Ctrl JAK2(JH1domain-catalytic)
T15 construct: purchased Ambit Biosciences (scanEDGE / KINOMEscan) scanEDGE 97 kinase panel; host or cells: T7 phage in E. coli BL21-derived host; remaining kinases in HEK-293 cells

97 kinases [16] = biological target: T16, 97 kinases (Homo sapiens, UniProt P53350); details: read-out: %Ctrl PLK1
T16 construct: purchased Ambit Biosciences (scanEDGE / KINOMEscan) scanEDGE 97 kinase panel; host or cells: T7 phage in E. coli BL21-derived host; remaining kinases in HEK-293 cells
T16 sequence (P53350 whole entry): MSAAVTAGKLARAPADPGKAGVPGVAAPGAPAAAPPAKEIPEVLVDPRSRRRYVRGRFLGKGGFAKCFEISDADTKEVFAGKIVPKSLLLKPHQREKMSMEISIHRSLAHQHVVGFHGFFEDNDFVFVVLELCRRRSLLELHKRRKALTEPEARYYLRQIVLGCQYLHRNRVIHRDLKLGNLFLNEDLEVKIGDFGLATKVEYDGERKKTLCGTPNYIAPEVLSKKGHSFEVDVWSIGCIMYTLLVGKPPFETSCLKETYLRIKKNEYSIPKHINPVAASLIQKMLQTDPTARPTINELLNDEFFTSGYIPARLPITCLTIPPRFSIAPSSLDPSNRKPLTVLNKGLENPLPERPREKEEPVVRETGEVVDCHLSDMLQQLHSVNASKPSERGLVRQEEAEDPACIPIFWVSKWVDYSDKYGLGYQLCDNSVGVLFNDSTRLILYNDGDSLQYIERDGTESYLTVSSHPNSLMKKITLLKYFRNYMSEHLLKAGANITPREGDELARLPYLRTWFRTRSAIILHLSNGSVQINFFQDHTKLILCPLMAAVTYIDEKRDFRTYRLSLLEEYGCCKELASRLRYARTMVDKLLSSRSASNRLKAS

97 kinases [17] = biological target: T17, 97 kinases (Homo sapiens, UniProt P36896); details: read-out: %Ctrl ACVR1B
T17 construct: purchased Ambit Biosciences (scanEDGE / KINOMEscan) scanEDGE 97 kinase panel; host or cells: T7 phage in E. coli BL21-derived host; remaining kinases in HEK-293 cells

97 kinases [18] = biological target: T18, 97 kinases (Homo sapiens, UniProt O00444); details: read-out: %Ctrl PLK4
T18 construct: purchased Ambit Biosciences (scanEDGE / KINOMEscan) scanEDGE 97 kinase panel; host or cells: T7 phage in E. coli BL21-derived host; remaining kinases in HEK-293 cells

97 kinases [19] = biological target: T19, 97 kinases (Homo sapiens, UniProt P27361); details: read-out: %Ctrl ERK1
T19 construct: purchased Ambit Biosciences (scanEDGE / KINOMEscan) scanEDGE 97 kinase panel; host or cells: T7 phage in E. coli BL21-derived host; remaining kinases in HEK-293 cells
T19 sequence (P27361 whole entry): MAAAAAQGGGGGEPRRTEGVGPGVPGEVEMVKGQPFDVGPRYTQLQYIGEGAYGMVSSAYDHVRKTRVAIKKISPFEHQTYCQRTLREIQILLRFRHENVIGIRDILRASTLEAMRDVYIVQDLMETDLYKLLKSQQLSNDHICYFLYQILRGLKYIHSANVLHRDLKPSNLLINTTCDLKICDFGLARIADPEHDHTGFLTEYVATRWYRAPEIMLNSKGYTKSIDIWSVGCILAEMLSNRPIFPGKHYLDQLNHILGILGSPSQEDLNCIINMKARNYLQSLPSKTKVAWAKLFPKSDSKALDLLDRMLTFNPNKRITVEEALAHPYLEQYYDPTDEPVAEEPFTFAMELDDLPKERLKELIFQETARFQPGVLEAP

97 kinases [20] = biological target: T20, 97 kinases (Homo sapiens, UniProt P42336); details: read-out: %Ctrl PIK3CA
T20 construct: purchased Ambit Biosciences (scanEDGE / KINOMEscan) scanEDGE 97 kinase panel; host or cells: T7 phage in E. coli BL21-derived host; remaining kinases in HEK-293 cells

97 kinases [21] = biological target: T21, 97 kinases (Homo sapiens, UniProt Q9BXA7); details: read-out: %Ctrl TSSK1B
T21 construct: purchased Ambit Biosciences (scanEDGE / KINOMEscan) scanEDGE 97 kinase panel; host or cells: T7 phage in E. coli BL21-derived host; remaining kinases in HEK-293 cells

97 kinases [22] = biological target: T22, 97 kinases (Homo sapiens, UniProt P36507); details: read-out: %Ctrl MEK2
T22 construct: purchased Ambit Biosciences (scanEDGE / KINOMEscan) scanEDGE 97 kinase panel; host or cells: T7 phage in E. coli BL21-derived host; remaining kinases in HEK-293 cells

97 kinases [23] = biological target: T23, 97 kinases (Homo sapiens, UniProt P53779); details: read-out: %Ctrl JNK3
T23 construct: purchased Ambit Biosciences (scanEDGE / KINOMEscan) scanEDGE 97 kinase panel; host or cells: T7 phage in E. coli BL21-derived host; remaining kinases in HEK-293 cells

97 kinases [24] = biological target: T24, 97 kinases (Homo sapiens, UniProt O15075); details: read-out: %Ctrl DCAMKL1
T24 construct: purchased Ambit Biosciences (scanEDGE / KINOMEscan) scanEDGE 97 kinase panel; host or cells: T7 phage in E. coli BL21-derived host; remaining kinases in HEK-293 cells

97 kinases [25] = biological target: T25, 97 kinases (Homo sapiens, UniProt P10721); details: read-out: %Ctrl KIT
T25 construct: purchased Ambit Biosciences (scanEDGE / KINOMEscan) scanEDGE 97 kinase panel; host or cells: T7 phage in E. coli BL21-derived host; remaining kinases in HEK-293 cells

97 kinases [26] = biological target: T26, 97 kinases (Homo sapiens, UniProt P06213); details: read-out: %Ctrl INSR
T26 construct: purchased Ambit Biosciences (scanEDGE / KINOMEscan) scanEDGE 97 kinase panel; host or cells: T7 phage in E. coli BL21-derived host; remaining kinases in HEK-293 cells

97 kinases [27] = biological target: T27, 97 kinases (Homo sapiens, UniProt P31751); details: read-out: %Ctrl AKT2
T27 construct: purchased Ambit Biosciences (scanEDGE / KINOMEscan) scanEDGE 97 kinase panel; host or cells: T7 phage in E. coli BL21-derived host; remaining kinases in HEK-293 cells
T27 sequence (P31751 whole entry): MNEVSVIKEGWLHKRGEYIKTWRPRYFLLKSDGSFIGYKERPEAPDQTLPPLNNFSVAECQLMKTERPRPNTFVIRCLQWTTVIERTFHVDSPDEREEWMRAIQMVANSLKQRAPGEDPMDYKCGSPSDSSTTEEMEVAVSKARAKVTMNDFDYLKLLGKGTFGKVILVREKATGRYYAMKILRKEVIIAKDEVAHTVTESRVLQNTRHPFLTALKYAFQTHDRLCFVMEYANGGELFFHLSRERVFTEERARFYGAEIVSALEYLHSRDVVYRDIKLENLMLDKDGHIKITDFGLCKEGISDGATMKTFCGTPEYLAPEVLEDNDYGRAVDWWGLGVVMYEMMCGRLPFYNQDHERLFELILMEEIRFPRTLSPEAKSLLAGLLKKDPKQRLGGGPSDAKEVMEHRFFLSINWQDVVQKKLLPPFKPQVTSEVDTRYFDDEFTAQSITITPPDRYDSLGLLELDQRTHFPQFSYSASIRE

97 kinases [28] = biological target: T28, 97 kinases (Homo sapiens, UniProt P15056, V600E); details: read-out: %Ctrl BRAF(V600E)
T28 construct: purchased Ambit Biosciences (scanEDGE / KINOMEscan) scanEDGE 97 kinase panel; host or cells: T7 phage in E. coli BL21-derived host; remaining kinases in HEK-293 cells

97 kinases [29] = biological target: T29, 97 kinases (Homo sapiens, UniProt Q8NI60); details: read-out: %Ctrl ADCK3
T29 construct: purchased Ambit Biosciences (scanEDGE / KINOMEscan) scanEDGE 97 kinase panel; host or cells: T7 phage in E. coli BL21-derived host; remaining kinases in HEK-293 cells

97 kinases [30] = biological target: T30, 97 kinases (Homo sapiens, UniProt P00519, T315I); details: read-out: %Ctrl ABL1(T315I)-phosphorylated
T30 construct: purchased Ambit Biosciences (scanEDGE / KINOMEscan) scanEDGE 97 kinase panel; host or cells: T7 phage in E. coli BL21-derived host; remaining kinases in HEK-293 cells

97 kinases [31] = biological target: T31, 97 kinases (Homo sapiens, UniProt P12931); details: read-out: %Ctrl SRC
T31 construct: purchased Ambit Biosciences (scanEDGE / KINOMEscan) scanEDGE 97 kinase panel; host or cells: T7 phage in E. coli BL21-derived host; remaining kinases in HEK-293 cells
T31 sequence (P12931 whole entry): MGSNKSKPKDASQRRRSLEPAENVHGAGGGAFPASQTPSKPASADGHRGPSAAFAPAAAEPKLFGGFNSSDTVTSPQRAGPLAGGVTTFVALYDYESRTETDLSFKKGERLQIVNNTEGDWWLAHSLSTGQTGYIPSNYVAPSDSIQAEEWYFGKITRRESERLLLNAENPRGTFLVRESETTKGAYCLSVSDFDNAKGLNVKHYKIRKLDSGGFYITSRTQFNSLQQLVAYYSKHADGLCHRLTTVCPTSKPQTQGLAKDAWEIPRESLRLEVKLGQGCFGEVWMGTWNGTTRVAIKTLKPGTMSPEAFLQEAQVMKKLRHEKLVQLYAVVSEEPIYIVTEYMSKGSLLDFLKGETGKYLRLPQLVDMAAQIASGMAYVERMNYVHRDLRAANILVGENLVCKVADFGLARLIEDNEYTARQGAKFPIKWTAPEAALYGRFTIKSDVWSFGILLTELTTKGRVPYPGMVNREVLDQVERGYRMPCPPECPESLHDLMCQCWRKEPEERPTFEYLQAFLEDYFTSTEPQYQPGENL

97 kinases [32] = biological target: T32, 97 kinases (Homo sapiens, UniProt P00533); details: read-out: %Ctrl EGFR
T32 construct: purchased Ambit Biosciences (scanEDGE / KINOMEscan) scanEDGE 97 kinase panel; host or cells: T7 phage in E. coli BL21-derived host; remaining kinases in HEK-293 cells

97 kinases [33] = biological target: T33, 97 kinases (Homo sapiens, UniProt P36897); details: read-out: %Ctrl TGFBR1
T33 construct: purchased Ambit Biosciences (scanEDGE / KINOMEscan) scanEDGE 97 kinase panel; host or cells: T7 phage in E. coli BL21-derived host; remaining kinases in HEK-293 cells

97 kinases [34] = biological target: T34, 97 kinases (Homo sapiens, UniProt O14920); details: read-out: %Ctrl IKK-beta
T34 construct: purchased Ambit Biosciences (scanEDGE / KINOMEscan) scanEDGE 97 kinase panel; host or cells: T7 phage in E. coli BL21-derived host; remaining kinases in HEK-293 cells

97 kinases [35] = biological target: T35, 97 kinases (Homo sapiens, UniProt P16234); details: read-out: %Ctrl PDGFRA
T35 construct: purchased Ambit Biosciences (scanEDGE / KINOMEscan) scanEDGE 97 kinase panel; host or cells: T7 phage in E. coli BL21-derived host; remaining kinases in HEK-293 cells

97 kinases [36] = biological target: T36, 97 kinases (Homo sapiens, UniProt P31749); details: read-out: %Ctrl AKT1
T36 construct: purchased Ambit Biosciences (scanEDGE / KINOMEscan) scanEDGE 97 kinase panel; host or cells: T7 phage in E. coli BL21-derived host; remaining kinases in HEK-293 cells

97 kinases [37] = biological target: T37, 97 kinases (Homo sapiens, UniProt P80192); details: read-out: %Ctrl MLK1
T37 construct: purchased Ambit Biosciences (scanEDGE / KINOMEscan) scanEDGE 97 kinase panel; host or cells: T7 phage in E. coli BL21-derived host; remaining kinases in HEK-293 cells

97 kinases [38] = biological target: T38, 97 kinases (Homo sapiens, UniProt Q13153); details: read-out: %Ctrl PAK1
T38 construct: purchased Ambit Biosciences (scanEDGE / KINOMEscan) scanEDGE 97 kinase panel; host or cells: T7 phage in E. coli BL21-derived host; remaining kinases in HEK-293 cells
T38 sequence (Q13153 whole entry): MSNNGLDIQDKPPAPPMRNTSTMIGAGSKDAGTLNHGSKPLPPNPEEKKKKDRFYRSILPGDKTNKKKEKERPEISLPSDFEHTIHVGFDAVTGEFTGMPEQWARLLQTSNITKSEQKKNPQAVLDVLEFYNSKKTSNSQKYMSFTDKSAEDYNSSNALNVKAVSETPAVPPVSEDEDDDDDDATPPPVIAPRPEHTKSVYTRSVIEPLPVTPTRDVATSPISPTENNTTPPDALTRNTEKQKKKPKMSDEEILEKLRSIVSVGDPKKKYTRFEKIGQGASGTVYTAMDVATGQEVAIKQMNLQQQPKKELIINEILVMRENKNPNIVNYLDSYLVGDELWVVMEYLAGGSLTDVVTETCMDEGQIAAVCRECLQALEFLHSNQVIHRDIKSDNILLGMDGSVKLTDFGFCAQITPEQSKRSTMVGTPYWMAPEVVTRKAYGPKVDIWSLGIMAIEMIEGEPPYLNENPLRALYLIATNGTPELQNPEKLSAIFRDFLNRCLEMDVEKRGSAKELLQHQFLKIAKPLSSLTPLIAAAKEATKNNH

Q: What does the source list for `CC(C)(C)CNCCn1c(Sc2cc3c(cc2I)OCO3)nc2c(N)ncnc21` [Compound 85]?
A: remaining binding at 10 µM (97 kinases [1]): 100%; remaining binding at 10 µM (97 kinases [2]): 100%; remaining binding at 10 µM (97 kinases [3]): 86%; remaining binding at 10 µM (97 kinases [4]): 91%; remaining binding at 10 µM (97 kinases [5]): 99%; remaining binding at 10 µM (97 kinases [6]): 74%; remaining binding at 10 µM (97 kinases [7]): 79%; remaining binding at 10 µM (97 kinases [8]): 95%; remaining binding at 10 µM (97 kinases [9]): 99%; remaining binding at 10 µM (97 kinases [10]): 91%; remaining binding at 10 µM (97 kinases [11]): 79%; remaining binding at 10 µM (97 kinases [12]): 95%; remaining binding at 10 µM (97 kinases [13]): 97%; remaining binding at 10 µM (97 kinases [14]): 96%; remaining binding at 10 µM (97 kinases [15]): 100%; remaining binding at 10 µM (97 kinases [16]): 97%; remaining binding at 10 µM (97 kinases [17]): 83%; remaining binding at 10 µM (97 kinases [18]): 89%; remaining binding at 10 µM (97 kinases [19]): 100%; remaining binding at 10 µM (97 kinases [20]): 87%; remaining binding at 10 µM (97 kinases [21]): 51%; remaining binding at 10 µM (97 kinases [22]): 76%; remaining binding at 10 µM (97 kinases [23]): 100%; remaining binding at 10 µM (97 kinases [24]): 78%; remaining binding at 10 µM (97 kinases [25]): 99%; remaining binding at 10 µM (97 kinases [26]): 92%; remaining binding at 10 µM (97 kinases [27]): 87%; remaining binding at 10 µM (97 kinases [28]): 97%; remaining binding at 10 µM (97 kinases [29]): 92%; remaining binding at 10 µM (97 kinases [30]): 96%; remaining binding at 10 µM (97 kinases [31]): 100%; remaining binding at 10 µM (97 kinases [32]): 96%; remaining binding at 10 µM (97 kinases [33]): 63%; remaining binding at 10 µM (97 kinases [34]): 88%; remaining binding at 10 µM (97 kinases [35]): 100%; remaining binding at 10 µM (97 kinases [36]): 93%; remaining binding at 10 µM (97 kinases [37]): 100%; remaining binding at 10 µM (97 kinases [38]): 92%
